“And” between values parts separate entries of the source, which are not always exact repeats. Identical values can stand only once.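 Each compound was tested at five concentrations against cells in 96-well plates for 48 hours. At the GI50, growth is halved.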 The source made the active and inactive calls. Cut-off read from the data, not from the text of the source: active = GI50 up to about 1.1 µM and inactive = higher.
Legend:
Test in all cases: inhibition of tumour cell growth, NCI panel, 48 h
Malme-3M = system: Malme-3M
SF-295 = system: SF-295
RXF 393 = system: RXF 393
SK-MEL-2 = system: SK-MEL-2
UACC-62 = system: UACC-62
HOP-62 = system: HOP-62
SF-268 = system: SF-268
ACHN = system: ACHN
SN12C = system: SN12C
LOX IMVI = system: LOX IMVI
CCRF-CEM = system: CCRF-CEM
NCI-H460 = system: NCI-H460
MDA-MB-231 = system: MDA-MB-231
SK-MEL-5 = system: SK-MEL-5
Hs-578T = system: Hs-578T
K562 = system: K562
MOLT-4 = system: MOLT-4
SNB-19 = system: SNB-19
KM12 = system: KM12
NCI/ADR-RES = system: NCI/ADR-RES
UACC-257 = system: UACC-257
SF-539 = system: SF-539
CAKI-1 = system: CAKI-1
SK-MEL-28 = system: SK-MEL-28
HCT-15 = system: HCT-15
PC-3 = system: PC-3
COLO 205 = system: COLO 205
T47D = system: T47D
BT-549 = system: BT-549
EKVX = system: EKVX
OVCAR-5 = system: OVCAR-5
HOP-92 = system: HOP-92
SK-OV-3 = system: SK-OV-3
UO-31 = system: UO-31
SNB-75 = system: SNB-75
HCC 2998 = system: HCC 2998
MCF7 = system: MCF7
M14 = system: M14
MDA-MB-435 = system: MDA-MB-435
OVCAR-8 = system: OVCAR-8
HCT-116 = system: HCT-116
DU-145 = system: DU-145
U-251 = system: U-251
HT-29 = system: HT-29
IGROV-1 = system: IGROV-1
786-0 = system: 786-0
NCI-H23 = system: NCI-H23
A549 = system: A549
OVCAR-4 = system: OVCAR-4
TK-10 = system: TK-10
SW-620 = system: SW-620
NCI-H522 = system: NCI-H522
OVCAR-3 = system: OVCAR-3
MDA-N = system: MDA-N
NCI-H226 = system: NCI-H226
RPMI-8226 = system: RPMI-8226
HL-60 = system: HL-60
SR = system: SR
A498 = system: A498

## CCN(CC)c1ccc(C2SCC(=O)N2c2ccc(NC(=O)c3ccc(N4C(=O)CSC4c4ccc(N(CC)CC)cc4)cc3)cc2)cc1 (centres undefined)
Malme-3M
  GI50: > 100 µM (inactive)
SF-295
  GI50: 30.1 µM (inactive)
RXF 393
  GI50: > 100 µM (inactive)
SK-MEL-2
  GI50: > 100 µM (inactive)
UACC-62
  GI50: > 100 µM (inactive)
HOP-62
  GI50: 89.7 µM (inactive)
SF-268
  GI50: > 100 µM (inactive)
ACHN
  GI50: > 100 µM (inactive)
SN12C
  GI50: > 100 µM (inactive)
LOX IMVI
  GI50: 67 µM (inactive)
CCRF-CEM
  GI50: 35.5 µM (inactive)
NCI-H460
  GI50: > 100 µM (inactive)
MDA-MB-231
  GI50: > 100 µM (inactive)
SK-MEL-5
  GI50: > 100 µM (inactive)
Hs-578T
  GI50: > 100 µM (inactive)
K562
  GI50: 47.6 µM (inactive)
MOLT-4
  GI50: 29.7 µM (inactive)
SNB-19
  GI50: > 100 µM (inactive)
KM12
  GI50: 96.8 µM (inactive)
NCI/ADR-RES
  GI50: > 100 µM (inactive)
UACC-257
  GI50: > 100 µM (inactive)
SF-539
  GI50: > 100 µM (inactive)
CAKI-1
  GI50: > 100 µM (inactive)
SK-MEL-28
  GI50: > 100 µM (inactive)
HCT-15
  GI50: > 100 µM
PC-3
  GI50: > 100 µM (inactive)
COLO 205
  GI50: > 100 µM (inactive)
T47D
  GI50: 26.2 µM (inactive)
BT-549
  GI50: > 100 µM (inactive)
EKVX
  GI50: > 100 µM (inactive)
OVCAR-5
  GI50: > 100 µM (inactive)
HOP-92
  GI50: > 100 µM (inactive)
SK-OV-3
  GI50: > 100 µM (inactive)
UO-31
  GI50: > 100 µM (inactive)
SNB-75
  GI50: > 100 µM (inactive)
HCC 2998
  GI50: > 100 µM (inactive)
MCF7
  GI50: 79.4 µM (inactive)
M14
  GI50: > 100 µM (inactive)
MDA-MB-435
  GI50: > 100 µM (inactive)
OVCAR-8
  GI50: > 100 µM (inactive)
HCT-116
  GI50: > 100 µM (inactive)
DU-145
  GI50: > 100 µM (inactive)
U-251
  GI50: > 100 µM (inactive)
HT-29
  GI50: 75 µM (inactive)
IGROV-1
  GI50: > 100 µM (inactive)
786-0
  GI50: > 100 µM (inactive)
NCI-H23
  GI50: > 100 µM (inactive)
A549
  GI50: > 100 µM (inactive)
OVCAR-4
  GI50: 70.8 µM (inactive)
TK-10
  GI50: > 100 µM (inactive)
SW-620
  GI50: > 100 µM (inactive)
NCI-H522
  GI50: > 100 µM (inactive)
OVCAR-3
  GI50: 71.4 µM (inactive)

## CN1CN(c2ccccc2)C2(CCN(CCCCCCF)CC2)C1=O
Malme-3M
  GI50: > 100 µM (inactive)
SF-295
  GI50: 82 µM (inactive)
RXF 393
  GI50: > 100 µM (inactive)
UACC-62
  GI50: 90.2 µM (inactive)
HOP-62
  GI50: 31.1 µM (inactive)
SF-268
  GI50: 94.8 µM (inactive)
ACHN
  GI50: 31.6 µM (inactive)
MDA-N
  GI50: 63.8 µM (inactive)
SN12C
  GI50: 68.9 µM (inactive)
LOX IMVI
  GI50: > 100 µM (inactive)
CCRF-CEM
  GI50: 37.9 µM (inactive)
MDA-MB-231
  GI50: 81.1 µM (inactive)
SK-MEL-5
  GI50: 38.1 µM (inactive)
K562
  GI50: > 100 µM (inactive)
MOLT-4
  GI50: 48.9 µM (inactive)
SNB-19
  GI50: 71.1 µM (inactive)
KM12
  GI50: > 100 µM (inactive)
NCI/ADR-RES
  GI50: 16.4 µM (inactive)
UACC-257
  GI50: 35.2 µM (inactive)
SF-539
  GI50: 28.8 µM (inactive)
CAKI-1
  GI50: 41.9 µM (inactive)
SK-MEL-28
  GI50: > 100 µM (inactive)
HCT-15
  GI50: 54.5 µM
PC-3
  GI50: > 100 µM (inactive)
COLO 205
  GI50: 21.1 µM (inactive)
T47D
  GI50: 29.9 µM (inactive)
BT-549
  GI50: 3.41 µM (inactive)
EKVX
  GI50: 48.6 µM (inactive)
OVCAR-5
  GI50: 35 µM (inactive)
SK-OV-3
  GI50: > 100 µM (inactive)
NCI-H226
  GI50: > 100 µM (inactive)
UO-31
  GI50: 26.7 µM (inactive)
SNB-75
  GI50: > 100 µM (inactive)
RPMI-8226
  GI50: > 100 µM (inactive)
MCF7
  GI50: 23.8 µM (inactive)
M14
  GI50: 73.5 µM (inactive)
MDA-MB-435
  GI50: > 100 µM (inactive)
OVCAR-8
  GI50: > 100 µM (inactive)
HCT-116
  GI50: 28.8 µM (inactive)
DU-145
  GI50: 44.1 µM (inactive)
U-251
  GI50: 97.1 µM (inactive)
HT-29
  GI50: 30.9 µM (inactive)
IGROV-1
  GI50: 40.3 µM (inactive)
786-0
  GI50: > 100 µM (inactive)
NCI-H23
  GI50: 94 µM (inactive)
A549
  GI50: 57.7 µM (inactive)
TK-10
  GI50: 65.8 µM (inactive)
SW-620
  GI50: 53.8 µM (inactive)
HL-60
  GI50: > 100 µM (inactive)
NCI-H522
  GI50: > 100 µM (inactive)
SR
  GI50: > 100 µM (inactive)
OVCAR-3
  GI50: > 100 µM (inactive)

## COc1cccc(-c2cc(O)c3cc(N(C)C)ccc3n2)c1
RXF 393
  GI50: 1.76 nM (active) and 18.8 nM (active)
HOP-62
  GI50: 25.6 nM (active) and 16.7 nM (active)
MDA-N
  GI50: 1.24 nM (active) and 2.27 nM (active)
SN12C
  GI50: 44.9 nM (active) and 24.3 nM (active)
MDA-MB-231
  GI50: 42.7 nM (active) and 25.8 nM (active)
SNB-19
  GI50: 30.4 nM (active) and 28.2 nM (active)
UACC-257
  GI50: 10.2 nM (active) and 5.13 nM (active)
A498
  GI50: < 0.01 µM (active)
HCT-15
  GI50: 0.00925 µM and 0.0116 µM
T47D
  GI50: > 10 µM (inactive)
BT-549
  GI50: 0.681 µM (active)
OVCAR-5
  GI50: 48.1 nM (active) and 41.5 nM (active)
NCI-H226
  GI50: 37.6 nM (active) and 23.7 nM (active)
RPMI-8226
  GI50: 30.2 nM (active) and 37.2 nM (active)
MDA-MB-435
  GI50: 2.68 nM (active) and 1.39 nM (active)
OVCAR-8
  GI50: 32.2 nM (active) and 18.2 nM (active)
HT-29
  GI50: 22.9 nM (active) and 14 nM (active)
NCI-H23
  GI50: 31.4 nM (active) and 37.4 nM (active)
OVCAR-4
  GI50: 4.95 µM (inactive) and 7.4 µM (inactive)
